According to patent EP2145538A1 (priority 2008, dated 2010):
Entries after “also recorded” stand apart in the source; their conditions may differ. Where two headings read alike, the source gives them in different places.

Key:
Fusarium graminearum [1] = assay: microbe, parasite or virus in culture; assay type: cell-based; settings: result in words
Amylase aus Bacillus sp. = assay: Amylase activity assay in microtiter plates (dye-labelled starch substrate), commercial enzyme; assay type: biochemical; settings: result in words
From the text: (§1) Diese Methode basiert auf folgendem Prinzip:

Humanspeichelamylase = target: T1, Humanspeichelamylase (Homo sapiens, UniProt P0DUB6); assay: as above; assay type: biochemical; settings: result in words
T1 construct: purchased Sigma
T1 sequence (P0DUB6 16-511): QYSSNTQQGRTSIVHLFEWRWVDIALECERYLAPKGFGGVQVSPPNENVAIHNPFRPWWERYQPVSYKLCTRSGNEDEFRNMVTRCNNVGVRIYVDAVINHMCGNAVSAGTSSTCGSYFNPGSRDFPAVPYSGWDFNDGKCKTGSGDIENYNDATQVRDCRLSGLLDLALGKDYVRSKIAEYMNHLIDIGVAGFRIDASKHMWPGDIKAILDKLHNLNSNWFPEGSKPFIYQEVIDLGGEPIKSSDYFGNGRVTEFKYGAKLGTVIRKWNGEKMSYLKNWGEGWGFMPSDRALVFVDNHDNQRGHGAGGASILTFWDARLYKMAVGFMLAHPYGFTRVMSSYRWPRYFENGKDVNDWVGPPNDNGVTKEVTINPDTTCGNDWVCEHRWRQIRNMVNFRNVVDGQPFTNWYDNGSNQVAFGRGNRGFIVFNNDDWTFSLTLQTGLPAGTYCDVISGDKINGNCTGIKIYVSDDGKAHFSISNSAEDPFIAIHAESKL
From the text: as §1

Erbsen = assay: Plant tolerance: germination of peas after imbibition in inhibitor solution; assay type: in vivo; settings: imbibition in a solution of 1 mg/ml; result in words
Weizenpflanzen = settings: in vivo
[2] = system: Amylasen von mit F. graminearum infizierten Pflanzen; assay type: biochemical, Fusarium graminearum; settings: result in words
Fusarium graminearum [3] = assay type: in vivo; settings: roots, 2 weeks after sowing
[4] = system: Blumeria graminis f. sp. tritici; assay: Powdery mildew rating on sprayed wheat plants (MOLL et al. 1996); assay type: in vivo; settings: 7 dpi; spray treatment at 3-leaf stage; AI-1 and AI-2 1 mg/ml, CI 100 µg/ml; Kontrolle 60
From the text: Nach einer Sprühbehandlung der Weizenpflanzen im 3-Blatt-Stadium und anschließender Inokulation (nach Abtrocknen) mit Mehltau Blumeria graminis f. sp. tritici sind eindeutige Hemmeffekte zu erkennen (Figur 25-27). Eine Bonitur nach MOLL et al. (1996) ergab für den Amylase-Inhibitor AI-1 eine Befallsreduktion von 60% auf 7%, für den Amylase-Inhibitor AI-2 auf 1 % und für den Cellulase-Inhibitor CI auf 10% (Tabelle 3). Tab. 3: Bonitur des Mehltaubefalls (Blumeria graminis f. sp. tritici) nach MOLL et al. (1996) 7 dpi.

[5] = target: Amylase aus Aspergillus oryzae (Aspergillus oryzae, UniProt P0C1B3); assay: Amylase activity assay in microtiter plates (dye-labelled starch substrate), commercial enzymes; assay type: biochemical; settings: both Aspergillus amylases (35 U/mg Fluka, 200 U/mg Sigma); result in words
From the text: as §1

[6] = system: Amylasen aus Kulturfiltrat (Strohextrakt) von in vitro angezogenem Fusarium graminearum; assay type: biochemical; settings: result in words

OCCN1C[C@H](O)[C@@H](O)[C@H](O)[C@H]1CO [AI-2, Miglitol]
Einfluss auf das Wachstum von Fusarium graminearum (Fusarium graminearum [1]; Saccharose as sole C source, up to 14 days): keinen Einfluss | Einfluss auf das Pilzwachstum (Fusarium graminearum [1]; Stärke as sole C source): keinen Einfluss | Einfluss auf das Wachstum des Pilzes in vitro (Fusarium graminearum [1]): keinerlei hemmenden Einfluss | Hemmung der Enzymaktivität (Amylase aus Bacillus sp.): weder die Humanamylase noch die verwendeten käuflichen Amylasen aus Bakterien bzw. Pilzen hemmt; also recorded: nicht zu hemmen vermochte | Hemmung der Enzymaktivität (Humanspeichelamylase): weder die Humanamylase noch die verwendeten käuflichen Amylasen aus Bakterien bzw. Pilzen hemmt; also recorded: nicht zu hemmen vermochte | Hemmung der Keimung (Erbsen): vollständig | Einfluss auf das ausgewachsene Blatt (Weizenpflanzen): keinen Einfluss auf das ausgewachsene Blatt | Hemmung der Keimung (Weizenpflanzen): vollständig | Hemmung der Keimung der Weizenpflanzen (Weizenpflanzen): so stark hemmte, dass sich Jungpflanzen nicht entwickeln konnten | Hemmung der Enzymaktivität [2]: wirkungslos; also recorded: keine Wirkung; also recorded: konnte weder die im Handel erhältlichen Amylasen bzw. Cellulasen der verschiedenen Mikroorganismen noch die von Fusarium graminearum in vitro oder in der Pflanze gebildeten Amylasen inhibieren | Fusarium Protein Equivalent (µg /g), Mean (Fusarium graminearum [3]; infected with F.g. + inhibitor, infected control 1261,2): 813,0 µg /g | Fusarium Protein Equivalent (µg /g), Mean (Fusarium graminearum [3]; not infected (K) + inhibitor): 7,6 µg /g | Befall (%) [4]: 1% | Hemmung der Enzymaktivität [5]: weder die Humanamylase noch die verwendeten käuflichen Amylasen aus Bakterien bzw. Pilzen hemmt; also recorded: nicht zu hemmen vermochte | Hemmung der Enzymaktivität [6]: konnte weder die im Handel erhältlichen Amylasen bzw. Cellulasen der verschiedenen Mikroorganismen noch die von Fusarium graminearum in vitro oder in der Pflanze gebildeten Amylasen inhibieren
